Experiment [1] relates to transglutaminases in keratinocytes. The note with it: cited from earlier work.
In experiment [2] the test system is human fibroblast cultures. As to the kind of experiment: cell-stimulating action on human fibroblast cultures. As to conditions: active ingredient present in the culture medium. The experiment is classed as cell-based. From the text: The cell-stimulating action of the complex of amino acids with silanol has been tested on human fibroblast cultures. The increase in cell growth was 46% when that active ingredient was present in the culture medium.

The values below come from patent US20060057093A1, “Preparation for topical use with the function of combating hair loss” (priority 2003, published 2006).

As for `CCCC(=O)[O-].[Na+]` [sodium butyrate], the “formation of the corneified enclosure of the corneocytes” value in experiment [1] (keratinocytes in the final stage of differentiation) is “capable of stimulating”. The “synthesis of transglutaminases in keratinocytes” value in experiment [1] (keratinocytes) was “capable of stimulating the synthesis of transglutaminases”.
As for “monomethylsilanol-hydroxyproline aspartate [complex of amino acids with silanol]”, the “increase in cell growth” value in experiment [2] is given as 46%.
